# Measured values: US6849709B2, “Aerothricin derivatives” (Basilea Pharmaceutica AG, priority 2000, dated 2005)
# *1 amine or outer side, *2 acyl side, *3 side chain or, on linkers, in order; H or OH if unused. Where a SMILES comes first, the peptide text is derived from it. Bridges are numbered along the chain shown (N, C = ends). Side-chain parts run from the residue outwards. [ ]: non-standard residue; d: D form. The star is where a group is joined. ξ: configuration not given here. pTerphenylCO(4''-OnC5H11) = CCCCCOc1ccc(-c2ccc(-c3ccc(C(=O)*)cc3)cc2)cc1; Orn(4R-OH,5R-OH) = O=C([C@H](C[C@@H](O)[C@@H](O)N[*:3])N[*:1])[*:2]; hTyr(3S-OH,4S-OH) = N[C@H](C(=O)O)[C@H](O)[C@@H](O)c1ccc(O)cc1; Orn(Nα,Nα-(2-aminoethyl)2) = NCCC[C@@H](C(=O)*)N(CCN)CCN; X2 = NCCC[C@H](N)C(=O)N(CCCN)CCC[C@H](N[*:1])C(=O)[*:2]; NαBis(2-aminoethyl)dOrn = NCCC[C@H](C(=O)*)N(CCN)CCN; Pro(3S-OH,4S-Me) = C[C@H]1CN[C@H](C(=O)O)[C@H]1O; X7 = CCCCCCCCCCCCC(C)[C@H](CC(=O)[*:1])O[*:2]; X4 = NCCCN(CCC[C@H](N[*:1])C(=O)[*:2])[*:3]; X3 = CCCCCCCCCCCCC[C@H](CC(=O)[*:1])O[*:2]; X6 = NCCN(CCC[C@H](N[*:1])C(=O)[*:2])[*:3]; ξGln(3R-OH) = NC(=O)C[C@@H](O)C(N)C(=O)O; Dopa = N[C@@H](Cc1ccc(O)c(O)c1)C(=O)O; Pro(3S-OH) = O=C(O)[C@H]1NCC[C@@H]1O; X1 = NC(=O)CC(O)C(N[*:1])C(=O)[*:2]; d(aThr) = C[C@@H](O)[C@@H](N)C(=O)O; Hyp = O=C(O)[C@@H]1C[C@@H](O)CN1; X5 = NCCCN[C@@H](CCCN)C(=O)*; dOrn = NCCC[C@@H](N)C(=O)O; Orn = NCCC[C@H](N)C(=O)O
# Tests used:
# Solubility = conditions: solvents in which soluble
# A. fumigatus = assay: Murine pulmonary aspergillosis, survival; type: in vivo, mouse; conditions: cortisone-treated ICR male mice; once daily for 4 days; survival on day 14
# Method: Murine pulmonary aspergillosis was created in cortisone-treated (250 mg/kg, twice sub-cutaneous treatments on 3 days before and on the infection day) ICR male mouse. Conidia of A. fumigatus (2.5×10^5 conidia/mouse) were infected intratracheally to these mice, and treatments were carried out once daily for 4 days. The efficacy of each drug was determined from the survival number, and 50% of effective dose (ED50) was calculated from the survival number at each dose on the 14 days.
# Candida albicans = assay: Murine systemic candidiasis, survival; type: in vivo, mouse; conditions: Crj: CD-1 (ICR) mice; i.v. once just after infection; survival on day 7
# Method: Mice of a conventional immunocompetent mouse strain, Crj: CD- 1 (ICR) were used for experimental infection models of systemic candidiasis. 4 weeks old Crj: CD-1 (ICR) mice were used for systemic candidiasis by injecting Candida albicans 5×10^6 conidia/mouse via the tail vein. Test compounds were intravenously (i.v.) given once just after infection for systemic candidiasis. 50% of effective dose (ED50) values were calculated from the survival number at each dose on day 7.
# [1] = system: Aspegillus fumigatus CF1003; assay: In vitro antifungal activity, broth micro-dilution IC80; type: cell-based, Aspergillus fumigatus; conditions: YNB medium with 0.2% agarose, 1-2 days at 35° C.
# Method: (§1) The in vitro antifungal activities of the representative Aerothricins of the present study were evaluated by determining the 80% inhibitory concentration (IC80), which was calculated as the lowest concentration of an antifungal to inhibit the growth of fungus to 20% turbidity compared with the drug-free control growth spectrophotometrically.
# (§2) The IC80 values were determined by the broth micro-dilution procedure based on NCCLS Approved Standard with the following minor modifications (National Committee for Clinical Laboratory Standards. (1997) Reference method for broth dilution antifungal susceptibility testing for yeasts. Approved standard. Document M27-A). Yeast Nitrogen Base (YNB; Difco Lab.) supplemented with 1% glucose and 0.25% K2HPO4 was used as testing medium for yeasts, the same medium solidified with 0.2% low melting point agarose (BRL) was used for filamentous fungi. Inoculum size was 1-3×10^3 cells/ml, and incubation was performed for 1-2 days at 35° C.
# mouse hepatocytes = assay: In vitro hepatotoxicity test; type: cell-based; conditions: mouse hepatocyte monolayers, exposed 1 day, morphological evaluation
# Source text: The mouse hepatocytes were isolated by a collagenase digestion and cultured in microtest plates. The hepatocyte monolayers were exposed to the test Aerothricins in the culture system for 1 day. After the culture period, the hepatocytes were observed under a microscope and evaluated morphologically. The degree of the morphological alteration (degeneration) of the hepatocytes by the test Aerothricins were compared with WF11243 and LY303366.
# [2] = system: Scedosporium apiospermum CF1077; assay: In vitro antifungal activity, broth micro-dilution IC80; type: cell-based; conditions: YNB medium with 0.2% agarose, 1-2 days at 35° C.
# Method: as §1, §2
# Candida albicans CY1002 = assay: as above; type: cell-based; conditions: YNB medium, 1-2 days at 35° C.
# Method: as §1, §2
# [3] = Toxicity on repeated i.v. administration to mice; type: in vivo; conditions: 5 mg/kg and 30 mg/kg once daily i.v. for 2 weeks
SMILES,"In vivo antifungal activity against pulmonary aspergillosis in mice, ED50 on day 14 (A. fumigatus) [mg/kg]","In vivo antifungal activity against systemic candidiasis in mice, ED50 on day 7 (Candida albicans) [mg/kg]","In vitro Antifungal activity, IC80 [1] [µg/mL]",Cytotoxicity to hepatocyte (mouse hepatocytes) [µg/mL],"In vitro Antifungal activity, IC80 [2] [µg/mL]","In vitro Antifungal activity, IC80 (Candida albicans CY1002) [µg/mL]",other results
CCCCCCCCCCCCC(C)[C@@H]1CC(=O)N[C@H]([C@@H](C)O)C(=O)N[C@H](C)C(=O)N[C@@H](Cc2ccc(O)cc2)C(=O)N[C@@H](C(C)C)C(=O)N2C[C@H](O)C[C@H]2C(=O)N[C@H]([C@@H](C)O)C(=O)N[C@@H]([C@@H](C)O)C(=O)N2CC[C@H](O)[C@H]2C(=O)NC(C(O)CC(N)=O)C(=O)NCC(=O)N[C@H]([C@@H](C)O)C(=O)N[C@@H](CCCN)C(=O)O1 (stereo partly drawn) [Aerothricin 1] ([d(aThr)][dA]YV[Hyp][d(aThr)]T[Pro(3S-OH)][X1]G[d(aThr)][Orn]; linker N-C via X7),,,,,,,"Solubility (Solubility): Soluble: water, methanol, dimethylsulfoxide"
CCCCCCCCCCCCC[C@@H]1CC(=O)N[C@H]([C@@H](C)O)C(=O)N[C@H](C)C(=O)N[C@@H](Cc2ccc(O)c(O)c2)C(=O)N[C@@H](C(C)C)C(=O)N2C[C@H](O)C[C@H]2C(=O)N[C@H]([C@@H](C)O)C(=O)N[C@@H]([C@@H](C)O)C(=O)N2CC[C@H](O)[C@H]2C(=O)NC(C(O)CC(N)=O)C(=O)NCC(=O)N[C@H]([C@@H](C)O)C(=O)N[C@@H](CCCN)C(=O)O1 (stereo partly drawn) [Aerothricin 2] ([d(aThr)][dA][Dopa]V[Hyp][d(aThr)]T[Pro(3S-OH)][X1]G[d(aThr)][Orn]; linker N-C via X3),,,,,,,"Solubility (Solubility): Soluble: water, methanol, dimethylsulfoxide"
CCCCCCCCCCCCC[C@@H]1CC(=O)N[C@H]([C@@H](C)O)C(=O)N[C@H](C)C(=O)N[C@@H](Cc2ccc(O)cc2)C(=O)N[C@@H](C(C)C)C(=O)N2C[C@H](O)C[C@H]2C(=O)N[C@H]([C@@H](C)O)C(=O)N[C@@H]([C@@H](C)O)C(=O)N2CC[C@H](O)[C@H]2C(=O)NC(C(O)CC(N)=O)C(=O)NCC(=O)N[C@H]([C@@H](C)O)C(=O)N[C@@H](CCCN(CCCN)C(=O)[C@@H](N)CCCN)C(=O)O1 (stereo partly drawn) [Aerothricin 132] ([d(aThr)][dA]YV[Hyp][d(aThr)]T[Pro(3S-OH)][X1]G[d(aThr)][X2]; linker N-C via X3),5.2,0.43,2.9,>100,0.38,0.28,acute toxicity [3]: no acute toxicity
CCCCCCCCCCCCC[C@@H]1CC(=O)N[C@H]([C@@H](C)O)C(=O)N[C@H](C)C(=O)N[C@@H](Cc2ccc(O)cc2)C(=O)N[C@@H](C(C)C)C(=O)N2C[C@H](O)C[C@H]2C(=O)N[C@H]([C@@H](C)O)C(=O)N[C@@H]([C@@H](C)O)C(=O)N2CC[C@H](O)[C@H]2C(=O)NC([C@H](O)CC(N)=O)C(=O)NCC(=O)N[C@H]([C@@H](C)O)C(=O)N[C@@H](CCCNC(=O)[C@@H](CCCN)NC(=O)[C@@H](N)CCCN)C(=O)O1 (stereo partly drawn) [Aerothricin 133] ([d(aThr)][dA]YV[Hyp][d(aThr)]T[Pro(3S-OH)][ξGln(3R-OH)]G[d(aThr)][Orn]([dOrn-Orn]); linker N-C via X3),,0.35,,,,,
"CCCCCCCCCCCCC[C@@H]1CC(=O)N[C@H]([C@@H](C)O)C(=O)N[C@H](C)C(=O)N[C@@H](Cc2ccc(O)cc2)C(=O)N[C@@H](C(C)C)C(=O)N2C[C@H](O)C[C@H]2C(=O)N[C@H]([C@@H](C)O)C(=O)N[C@@H]([C@@H](C)O)C(=O)N2CC[C@H](O)[C@H]2C(=O)NC(C(O)CC(N)=O)C(=O)NCC(=O)N[C@H]([C@@H](C)O)C(=O)N[C@@H](CCCN(CCCN)C(=O)[C@H](CCCN)N(CCN)CCN)C(=O)O1 (stereo partly drawn) [Aerothricin 134] ([d(aThr)][dA]YV[Hyp][d(aThr)]T[Pro(3S-OH)][X1]G[d(aThr)][X4](Orn(Nα,Nα-(2-aminoethyl)2)); linker N-C via X3)",5.8,,0.58,>100,0.37,0.37,
CCCCCCCCCCCCC[C@@H]1CC(=O)N[C@H]([C@@H](C)O)C(=O)N[C@H](C)C(=O)N[C@@H](Cc2ccc(O)cc2)C(=O)N[C@@H](C(C)C)C(=O)N2C[C@H](O)C[C@H]2C(=O)N[C@H]([C@@H](C)O)C(=O)N[C@@H]([C@@H](C)O)C(=O)N2CC[C@H](O)[C@H]2C(=O)NC(C(O)CC(N)=O)C(=O)NCC(=O)N[C@H]([C@@H](C)O)C(=O)N[C@@H](CCCN(CCCN)C(=O)[C@@H](CCCN)N(CCN)CCN)C(=O)O1 (stereo partly drawn) [Aerothricin 135] ([d(aThr)][dA]YV[Hyp][d(aThr)]T[Pro(3S-OH)][X1]G[d(aThr)][X4](NαBis(2-aminoethyl)dOrn); linker N-C via X3),,0.35,0.37,>100,0.35,0.41,
CCCCCCCCCCCCC[C@@H]1CC(=O)N[C@H]([C@@H](C)O)C(=O)N[C@H](C)C(=O)N[C@@H](Cc2ccc(O)cc2)C(=O)N[C@@H](C(C)C)C(=O)N2C[C@H](O)C[C@H]2C(=O)N[C@H]([C@@H](C)O)C(=O)N[C@@H]([C@@H](C)O)C(=O)N2CC[C@H](O)[C@H]2C(=O)NC(C(O)CC(N)=O)C(=O)NCC(=O)N[C@H]([C@@H](C)O)C(=O)N[C@@H](CCCN(CCCN)C(=O)[C@H](CCCN)NCCCN)C(=O)O1 (stereo partly drawn) [Aerothricin 136] ([d(aThr)][dA]YV[Hyp][d(aThr)]T[Pro(3S-OH)][X1]G[d(aThr)][X4](X5); linker N-C via X3),,,0.38,,0.34,0.33,
"CCCCCCCCCCCCC[C@@H]1CC(=O)N[C@H]([C@@H](C)O)C(=O)N[C@H](C)C(=O)N[C@@H](Cc2ccc(O)cc2)C(=O)N[C@@H](C(C)C)C(=O)N2C[C@H](O)C[C@H]2C(=O)N[C@H]([C@@H](C)O)C(=O)N[C@@H]([C@@H](C)O)C(=O)N2CC[C@H](O)[C@H]2C(=O)NC(C(O)CC(N)=O)C(=O)NCC(=O)N[C@H]([C@@H](C)O)C(=O)N[C@@H](CCCN(CCN)C(=O)[C@H](CCCN)N(CCN)CCN)C(=O)O1 (stereo partly drawn) [Aerothricin 137] ([d(aThr)][dA]YV[Hyp][d(aThr)]T[Pro(3S-OH)][X1]G[d(aThr)][X6](Orn(Nα,Nα-(2-aminoethyl)2)); linker N-C via X3)",5.2,,,,,,
"CCCCCOc1ccc(-c2ccc(-c3ccc(C(=O)N[C@H]4C[C@@H](O)[C@@H](O)NC(=O)[C@@H]5[C@@H](O)[C@@H](C)CN5C(=O)[C@H]([C@@H](C)O)NC(=O)[C@H]([C@H](O)[C@@H](O)c5ccc(O)cc5)NC(=O)[C@@H]5C[C@@H](O)CN5C(=O)[C@H]([C@@H](C)O)NC4=O)cc3)cc2)cc1 [LY303366, reference compound] ({pTerphenylCO(4''-OnC5H11)}-[Orn(4R-OH,5R-OH)]T[Hyp][hTyr(3S-OH,4S-OH)]T[Pro(3S-OH,4S-Me)]; lactam 1-C)",,,,10,,,
